Data on six compounds can be found in patent publication US6339045B1, “N-(unsubstituted or substituted)-4-substituted-6-(unsubstituted or substituted)phenoxy-2-pyridinecarboxamides or thiocarboxamides, processes for producing the same, and herbicides” (Kureha Kagaku Kogyo Kabushiki Kaisha, priority 1995, dated 2002).

Common to all, as to experiment: Herbicidal effect by foliage and soil treatment
What all share (type): in vivo
What all share (settings): 10 g ai/10a, evaluated after 14 days

The test system of assay [1] is wild chamomile (Matricaria chamomilla). An excerpt:
(§1) Experiment for Determination of Herbicidal Effect by Foliate and Soil Treatment Seeds of redroot pigweed (Amaranthus retroflexus), common blackjack (Bidens pilosa), kediock (Sinapis arvensis), common chickweed (Stellaria media), sicklepod (Cassia obtusifolia), black nightshade (Solanum nigrum), velvetleaf (Abutilon theophrasti), field bindweed (Convolvulus arvensis), wild chamomile (Matricaria chamomilla), cleavers (Galium aparine) and […] (Veronica hederaefolia), were uniformly sowed over a horticultural granular soil (produced by KUREHA CHEMICAL INDUSTRY, CO., LTD.; the same soil was used hereinafter) filled in a planter. The planter was placed in a greenhouse (maintained at 19 to 25° C.) to sprout these plants. Two seedlings of each sprouted plant were transplanted to a 10 cm-diameter pot filled with the horticultural granular soil and cultivated in the greenhouse (maintained at 19 to 25° C.) until reaching a cotyledonal to bifoliate period suited to the foliage and soil treatment. […] Next, additional amounts of Tween 20 and water were added to the obtained solution or suspension to produce a test solution. The plants prepared in the above (1) were placed within a frame having a predetermined inside area, and uniformly sprayed with the test solution using a sprayer such that the amount of each compound applied was controlled to a predetermined level. The plants sprayed with the test solution were placed again in the greenhouse (maintained at 19 to 25° C.) and cultivated therein. After 14 days, the degree of growth of each plant cultivated in the treated region was compared with that of plant cultivated in non-treated region, and evaluated according to the following ratings. The herbicidal activity of each test compound was represented by these ratings

The subject of assay [2] is kediock (Sinapis arvensis).
Excerpt: as §1

In assay [3] the test system is redroot pigweed (Amaranthus retroflexus).
Excerpt: as §1

Assay [4] deals with ivyleafspeedwell (Veronica hederaefolia).
Excerpt: as §1

The subject of assay [5] is velvetleaf (Abutilon theophrasti).
Excerpt: as §1

Assay [6] relates to cleavers (Galium aparine).
Excerpt: as §1

Assay [7] deals with common blackjack (Bidens pilosa).
Excerpt: as §1

For assay [8], the system named is black nightshade (Solanum nigrum).
Excerpt: as §1

Assay [9] concerns sicklepod (Cassia obtusifolia).
Excerpt: as §1

Assay [10] relates to field bindweed (Convolvulus arvensis).
Excerpt: as §1

Assay [11] deals with common chickweed (Stellaria media).
Excerpt: as §1

With `CCC(=O)CNC(=O)c1cc(OC)cc(Oc2cccc(C(F)(F)F)c2)n1` [Compound I-86, N-(2-oxobutyl)-4-methoxy-6-{3-(trifluoromethyl)phenoxy}-2-pyridine carboxamide], the “herbicidal activity rating, MC (Matricaria chamomilla)” value (from here on “herbicidal activity rating, MC”) in assay [1] was 4 (percentage of weeds killed was not less than 60% and less than 80%). Further, in [2], the “herbicidal activity rating, SA (Sinapis arvensis)” value (“herbicidal activity rating, SA” below) is listed as 5 (percentage of weeds killed was not less than 80%). Also, the “herbicidal activity rating, AR (Amaranthus retroflexus)” value (“herbicidal activity rating, AR” below) in assay [3] is recorded as 5 (percentage of weeds killed was not less than 80%). Moreover, the “herbicidal activity rating, VH (Veronica hederaefolia)” value (from here on “herbicidal activity rating, VH”) in assay [4] is 5 (percentage of weeds killed was not less than 80%). Further, in assay [5], the “herbicidal activity rating, AT (Abutilon theophrasti)” value is given as 5 (percentage of weeds killed was not less than 80%). The “herbicidal activity rating, GA (Galium aparine)” value (“herbicidal activity rating, GA” below) in [6] is recorded as 5 (percentage of weeds killed was not less than 80%). Moreover, the “herbicidal activity rating, BP (Bidens pilosa)” value (from here on “herbicidal activity rating, BP”) in assay [7] is 4 (percentage of weeds killed was not less than 60% and less than 80%). In assay [8], the “herbicidal activity rating, SN (Solanum nigrum)” value (“herbicidal activity rating, SN” below) was 5 (percentage of weeds killed was not less than 80%). Besides, the “herbicidal activity rating, CO (Cassia obtusifolia)” value (from here on “herbicidal activity rating, CO”) in [9] is 4 (percentage of weeds killed was not less than 60% and less than 80%). In assay [10], the “herbicidal activity rating, CA (Convolvulus arvensis)” value (shortened to “herbicidal activity rating, CA”) was 3 (percentage of weeds killed was not less than 40% and less than 60%). Besides, the “herbicidal activity rating, SM (Stellaria media)” value (from here on “herbicidal activity rating, SM”) in assay [11] is listed as 5 (percentage of weeds killed was not less than 80%).

Turning to `COc1cc(Oc2cccc(C(F)(F)F)c2)nc(C(=O)NCCC#N)c1` [Compound I-71], the “herbicidal activity rating, MC” value in [1] is 4 (percentage of weeds killed was not less than 60% and less than 80%). The “herbicidal activity rating, SA” value in assay [2] was 5 (percentage of weeds killed was not less than 80%). Besides, the “herbicidal activity rating, AR” value in assay [3] was 5 (percentage of weeds killed was not less than 80%). In addition, the “herbicidal activity rating, VH” value in [4] is 5 (percentage of weeds killed was not less than 80%). For the same compound, in assay [5], the “herbicidal activity rating, AT (Abutilon theophrasti)” value is 4 (percentage of weeds killed was not less than 60% and less than 80%). In addition, the “herbicidal activity rating, GA” value in [6] is given as 5 (percentage of weeds killed was not less than 80%). Further, the “herbicidal activity rating, BP” value in [7] is on record as 5 (percentage of weeds killed was not less than 80%). In addition, the “herbicidal activity rating, SN” value in assay [8] is on record as 5 (percentage of weeds killed was not less than 80%). The “herbicidal activity rating, CO” value in assay [9] was 5 (percentage of weeds killed was not less than 80%). For the same compound, the “herbicidal activity rating, CA” value in assay [10] is listed as 5 (percentage of weeds killed was not less than 80%). The “herbicidal activity rating, SM” value in [11] is reported as 5 (percentage of weeds killed was not less than 80%).

Take `COc1cc(Oc2cccc(C(F)(F)F)c2)nc(C(=O)NCC#N)c1` [Compound I-84, N-{(2-cyano)methyl}-4-methoxy-6-{3-(trifluoromethyl)phenoxy}-2-pyridine carboxamide]: the “herbicidal activity rating, MC” value in assay [1] was 2 (percentage of weeds killed was not less than 20% and less than 40%). For the same compound, in [2], the “herbicidal activity rating, SA” value was 5 (percentage of weeds killed was not less than 80%). Also, in assay [3], the “herbicidal activity rating, AR” value is recorded as 5 (percentage of weeds killed was not less than 80%). Also, in [4], the “herbicidal activity rating, VH” value is reported as 5 (percentage of weeds killed was not less than 80%). In addition, the “herbicidal activity rating, AT (Abutilon theophrasti)” value in assay [5] is listed as 5 (percentage of weeds killed was not less than 80%). Further, the “herbicidal activity rating, GA” value in assay [6] is 5 (percentage of weeds killed was not less than 80%). The “herbicidal activity rating, BP” value in assay [7] was 5 (percentage of weeds killed was not less than 80%). The “herbicidal activity rating, SN” value in assay [8] is 5 (percentage of weeds killed was not less than 80%). Besides, the “herbicidal activity rating, CO” value in [9] is 5 (percentage of weeds killed was not less than 80%). Further, the “herbicidal activity rating, CA” value in assay [10] was 4 (percentage of weeds killed was not less than 60% and less than 80%). For the same compound, in [11], the “herbicidal activity rating, SM” value is 4 (percentage of weeds killed was not less than 60% and less than 80%).

With `CCN(C)C(=O)c1cc(OC)cc(Oc2cccc(C(F)(F)F)c2)n1` [Compound I-201], in assay [1], the “herbicidal activity rating, MC” value was 2 (percentage of weeds killed was not less than 20% and less than 40%). The “herbicidal activity rating, SA” value in [2] is 5 (percentage of weeds killed was not less than 80%). In addition, the “herbicidal activity rating, AR” value in assay [3] is 5 (percentage of weeds killed was not less than 80%). The “herbicidal activity rating, VH” value in assay [4] is 5 (percentage of weeds killed was not less than 80%). Further, the “herbicidal activity rating, AT (Abutilon theophrasti)” value in assay [5] is 4 (percentage of weeds killed was not less than 60% and less than 80%). Also, in [6], the “herbicidal activity rating, GA” value is reported as 5 (percentage of weeds killed was not less than 80%). The “herbicidal activity rating, BP” value in assay [7] was 2 (percentage of weeds killed was not less than 20% and less than 40%). The “herbicidal activity rating, SN” value in assay [8] is 5 (percentage of weeds killed was not less than 80%). Further, the “herbicidal activity rating, CO” value in [9] is listed as 5 (percentage of weeds killed was not less than 80%). Further, the “herbicidal activity rating, CA” value in assay [10] is 5 (percentage of weeds killed was not less than 80%). For the same compound, in assay [11], the “herbicidal activity rating, SM” value was 5 (percentage of weeds killed was not less than 80%).

`CCCNC(=O)c1cccc(Oc2cccc(C(F)(F)F)c2)n1` [control (b)]: the “herbicidal activity rating, MC” value in [1] is 1 (percentage of weeds killed was less than 20%). For the same compound, the “herbicidal activity rating, SA” value in assay [2] is listed as 5 (percentage of weeds killed was not less than 80%). The “herbicidal activity rating, AR” value in [3] is reported as 5 (percentage of weeds killed was not less than 80%). The “herbicidal activity rating, VH” value in [4] is on record as 5 (percentage of weeds killed was not less than 80%). In addition, the “herbicidal activity rating, AT (Abutilon theophrasti)” value in assay [5] was 3 (percentage of weeds killed was not less than 40% and less than 60%). For the same compound, the “herbicidal activity rating, GA” value in assay [6] was 5 (percentage of weeds killed was not less than 80%). Also, the “herbicidal activity rating, BP” value in [7] was 1 (percentage of weeds killed was less than 20%). The “herbicidal activity rating, SN” value in assay [8] is recorded as 5 (percentage of weeds killed was not less than 80%). The “herbicidal activity rating, CO” value in assay [9] is 3 (percentage of weeds killed was not less than 40% and less than 60%). For the same compound, the “herbicidal activity rating, CA” value in assay [10] was 2 (percentage of weeds killed was not less than 20% and less than 40%). In assay [11], the “herbicidal activity rating, SM” value is 4 (percentage of weeds killed was not less than 60% and less than 80%).

As for `COc1cc(Oc2cccc(C(F)(F)F)c2)nc(C(=O)Nc2ccc(Cl)cc2)c1` [Compound I-2], the “herbicidal activity rating, MC” value in [1] was 3 (percentage of weeds killed was not less than 40% and less than 60%). Further, the “herbicidal activity rating, SA” value in [2] is recorded as 5 (percentage of weeds killed was not less than 80%). Moreover, in [3], the “herbicidal activity rating, AR” value was 5 (percentage of weeds killed was not less than 80%). The “herbicidal activity rating, VH” value in assay [4] was 5 (percentage of weeds killed was not less than 80%). The “herbicidal activity rating, AT (Abutilon theophrasti)” value in assay [5] is 4 (percentage of weeds killed was not less than 60% and less than 80%). Also, the “herbicidal activity rating, GA” value in assay [6] was 5 (percentage of weeds killed was not less than 80%). In [7], the “herbicidal activity rating, BP” value is recorded as 5 (percentage of weeds killed was not less than 80%). The “herbicidal activity rating, SN” value in assay [8] is 5 (percentage of weeds killed was not less than 80%). Further, the “herbicidal activity rating, CO” value in assay [9] was 5 (percentage of weeds killed was not less than 80%). Moreover, the “herbicidal activity rating, CA” value in [10] is 5 (percentage of weeds killed was not less than 80%). Further, the “herbicidal activity rating, SM” value in assay [11] was 4 (percentage of weeds killed was not less than 60% and less than 80%).
